Assay results from PMC3456874, “Fragment Screening at Adenosine-A3 Receptors in Living Cells Using a Fluorescence-Based Binding Assay” (Chemistry & Biology, 2012).
Where “and” joins values, the source holds several entries; their conditions need not be identical. Identical values can stand only once. Like-named read-outs stand apart in the source and are kept apart here.

Columns and labels:
human A1AR [1] = biological target: T1, human A1AR (Homo sapiens, UniProt P30542)
T1 sequence (P30542 1-326): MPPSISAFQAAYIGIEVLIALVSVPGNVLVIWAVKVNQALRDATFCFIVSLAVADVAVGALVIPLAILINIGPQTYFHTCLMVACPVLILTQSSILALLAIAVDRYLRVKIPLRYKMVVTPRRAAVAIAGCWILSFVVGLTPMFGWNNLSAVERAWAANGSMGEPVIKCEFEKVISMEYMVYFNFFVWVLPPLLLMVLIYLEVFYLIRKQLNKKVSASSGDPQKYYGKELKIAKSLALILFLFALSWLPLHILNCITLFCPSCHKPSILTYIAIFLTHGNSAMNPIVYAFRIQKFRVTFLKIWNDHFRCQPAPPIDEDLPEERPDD

human A3AR [2] = biological target: T2, human A3AR (Homo sapiens, UniProt P0DMS8)
T2 sequence (P0DMS8 1-318): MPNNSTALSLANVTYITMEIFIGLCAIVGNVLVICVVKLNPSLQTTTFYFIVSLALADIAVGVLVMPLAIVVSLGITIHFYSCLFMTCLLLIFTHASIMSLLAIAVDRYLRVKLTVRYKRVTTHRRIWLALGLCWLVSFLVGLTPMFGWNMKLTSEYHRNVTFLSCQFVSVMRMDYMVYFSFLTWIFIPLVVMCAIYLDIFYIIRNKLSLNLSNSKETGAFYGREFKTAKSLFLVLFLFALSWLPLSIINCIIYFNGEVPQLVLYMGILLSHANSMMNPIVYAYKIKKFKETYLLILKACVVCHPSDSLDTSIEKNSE

human A3AR [3] = biological target: T2, human A3AR; assay: cell-based
A3-YFP = A3-YFP receptor internalization (granularity analysis) in CHO A3-YFP cells
human A1AR [4] = biological target: T1, human A1AR; assay: High-content fluorescent ligand (CA200645) competition binding assay in live CHO-A1 cells; conditions: for inhibition at 10 µM: read-out: inhibition of CA200645 binding at the A1AR; for A1 % inhibition (Table S3): top concentration of compound tested, quoted where less than 50% inhibition of total binding
human A3AR [5] = biological target: T2, human A3AR; assay: High-content fluorescent ligand (CA200645) competition binding assay in live CHO CRE-SPAP cells expressing the A3AR; conditions: for remaining binding at 1000 µM: read-out: % of CA200645 binding (% DMSO control)
human A1AR [6] = biological target: T1, human A1AR; assay: cell-based
human A3AR [7] = biological target: T2, human A3AR; assay: CRE-SPAP gene transcription assay (shift of NECA-mediated inhibition of forskolin-stimulated SPAP response)
[8] = A3 pKi (Table S3), mean ± s.e.m
[9] = pKi at the adenosine A3 receptor (Table S2), mean ± s.e.m from 3 separate experiments

Work on `CCCn1c(=O)[nH]c2nc(-c3ccc(S(=O)(=O)N4CCN(c5ccc(Cl)cc5)CC4)cc3)[nH]c2c1=O` [PSB 603] yielded a Ki (human A1AR [1]) of 0.0417 µM and a Ki (human A3AR [2]) of 0.0562 µM.
For `COc1ccc(-n2ccnc2)cc1` [Compound 6], the Ki (human A3AR [3]) was 525 µM.
With `COc1ccc(-n2nc3c(=O)[nH]c4ccccc4n3c2=O)cc1` [Compound 2] the Ki (human A3AR [3]) was 0.0776 µM.
For `CNC(=O)[C@H]1O[C@@H](n2cnc3c(NCc4cccc(I)c4)ncnc32)[C@H](O)[C@@H]1O` [IB-MECA], the “A3-YFP internalization / agonist action” value (A3-YFP) was “caused A3-YFP internalisztion”.
In the case of `O=C(Nc1ccccc1-c1nc2ccccc2[nH]1)c1cccnc1` [Compound 10], the inhibition at 10 µM (human A1AR [4]) is reported as < 50%, the “A1 % inhibition (Table S3)” value (human A1AR [4]) is reported as 38.9 ± 8.3% and the “fold increase in A3AR affinity compared to DP01095” value (human A3AR [5]) is reported as 3 fold. It also gave a Ki (human A3AR [5]; [8]) of 0.0977 µM.
For `CCCCC#Cc1nc(NC)c2ncn([C@@H]3O[C@H](CO)[C@@H](O)[C@H]3O)c2n1` [HEMADO, reference compound], the “A3-YFP internalization / agonist action” value (A3-YFP) was “stimulated A3-YFP internalization” and the “pIC50 for inhibition of CA200645 binding (agonists)” value (human A3AR [5]; A3AR, n = 4) was 7.23 ± 0.23.
For `Nc1cnc2ccccc2c1` [Compound 5], the Ki (human A3AR [3]) was > 10000 µM.
Molecule `COC(=O)C1Cc2ccccc2N1` (centres unmarked) [MO 00997] has a Ki (human A3AR [5]; [9]) of 0.794 µM and a remaining binding at 1000 µM (human A3AR [5]) of 31.1%.
Molecule `COc1ccc(NN=c2[nH]c3ccccc3[nH]c2=O)cc1` [Compound 3] has a Ki (human A3AR [3]) of 2.63 µM.
In the case of `Nc1ccccc1-c1nc2ccccc2[nH]1` [DP 01095], the remaining binding at 1000 µM (human A3AR [5]) is reported as 36.3% and the Ki (human A3AR [3]) is reported as 0.363 µM and 0.331 µM.
Molecule `COc1ccc(-n2nc3c(NC(=O)c4ccccc4)nc4ccccc4n3c2=O)cc1` [Compound 1] has a Ki (human A1AR [6]) of 1.17 µM, a Ki (human A3AR [3]) of 0.00309 µM and a Kb (human A3AR [7]) of 0.00166 µM.
With `O=C(Nc1cnc2ccccc2c1)c1ccccc1` [Compound 4] the Ki (human A3AR [3]) was > 100 µM.
`CNC(=O)[C@H]1O[C@@H](n2cnc3c(NCc4cccc(I)c4)nc(Cl)nc32)[C@H](O)[C@@H]1O` [2-Cl IB-MECA] was tested, and the “A3-YFP internalization / agonist action” value (A3-YFP) was “stimulated A3-YFP internalization”.
`Nc1ccc(C(F)(F)F)cc1N` [BTB 07340] showed a Ki (human A3AR [5]; [9]) of 2.95 µM and a remaining binding at 1000 µM (human A3AR [5]) of 10.3%.
In the case of `COc1ccc(NC(C)=O)cc1` [Compound 7], the Ki (human A3AR [3]) is reported as 20.4 µM.
Molecule `Nc1nc2ccc(Cl)cc2c2nc(-c3ccco3)nn12` [CGS 15943, reference compound] has a Ki (human A3AR [3]) of 0.00661 µM.
For `Cc1cc(N)c(N)cc1Cl` [TL 00770], the Ki (human A3AR [5]; [9]) was 1 µM and the remaining binding at 1000 µM (human A3AR [5]) was 23.5%.
`Nc1nc2c(cnn2CCc2ccccc2)c2nc(-c3ccco3)nn12` [SCH 58261, reference compound] was tested, and the Ki (human A3AR [3]) was 0.186 µM.
With `Nc1cccc(-c2nc3ccccc3[nH]2)c1` [Compound 8] the Ki (human A3AR [3]) was 3.24 µM.
For `O=C(Nc1ccccc1-c1nc2ccccc2[nH]1)c1cccs1` [Compound 12], the inhibition at 10 µM (human A1AR [4]) was < 50%, the “A1 % inhibition (Table S3)” value (human A1AR [4]) was 47.9 ± 9.7% and the Ki (human A3AR [5]; [8]) was 0.257 µM.
For `Nc1nc(NCCc2ccc(O)cc2)nc2nc(-c3ccco3)nn12` [ZM 241385, reference compound], the Ki (human A3AR [3]) was 0.182 µM and the Kb (human A3AR [7]) was 0.407 µM.
For `O=C(Nc1ccccc1-c1nc2ccccc2[nH]1)c1ccco1` [Compound 11], the inhibition at 10 µM (human A1AR [4]) was < 50%, the “A1 % inhibition (Table S3)” value (human A1AR [4]) was 40.6 ± 7.3% and the Ki (human A3AR [5]; [8]) was 0.166 µM.
`Nc1ccc2[nH]ncc2c1` [AC 30454] was tested, and the Ki (human A3AR [5]; [9]) was 3.16 µM and the remaining binding at 1000 µM (human A3AR [5]) was 13%.
`Cc1cc2cc(N)ccc2[nH]1` [AC 34875] gave a Ki (human A3AR [5]; [9]) of 1.2 µM and a remaining binding at 1000 µM (human A3AR [5]) of 10.4%.
Molecule `Nc1ccc(-c2nc3ccccc3[nH]2)cc1` [Compound 9] has an inhibition at 100 µM (human A3AR [5]; read-out: % inhibition of CA200645 binding at A3AR) of 41.2 ± 7.3%.
For `CCNC(=O)[C@H]1O[C@@H](n2cnc3c(N)nc(NCCc4ccc(CCC(=O)O)cc4)nc32)[C@H](O)[C@@H]1O` [CGS 21680, reference compound], the “displacement of CA200645 binding” value (human A3AR [5]; A3AR, agonist competition curves) was “only partial displacement”.
